Assay results taken from ChEMBL document CHEMBL1671694, “OXA-24 carbapenemase gene flanked by XerC/XerD-like recombination sites in different plasmids from different Acinetobacter species isolated during a nosocomial outbreak” (2010).
Values after ≈ are worked out from the molar mass of the structure shown.

How the values were obtained:
Acinetobacter baylyi [1] = test: Antimicrobial activity against Acinetobacter baylyi ADP1 by microdilution method; type: functional
Acinetobacter baylyi [2] = test: Antimicrobial activity against Acinetobacter baylyi ADP1 harboring pMMCU1 plasmid expressing bla-OXA-24 gene by microdilution method; type: functional

With `C[C@@H](O)[C@H]1C(=O)N2C(C(=O)O)=C(SCCNC=N)C[C@H]12` [IMIPENEM ANHYDROUS] the MIC (Acinetobacter baylyi [1]) was 0.094 µg/mL (≈ 0.314 µM) and the MIC (Acinetobacter baylyi [2]) was over 32 µg/mL.
`C[C@@H](O)[C@H]1C(=O)N2C(C(=O)O)=C(S[C@@H]3CN[C@H](C(=O)N(C)C)C3)[C@H](C)[C@H]12` [MEROPENEM] gave an MIC (Acinetobacter baylyi [1]) of 0.25 µg/mL (≈ 0.652 µM) and an MIC (Acinetobacter baylyi [2]) of over 32 µg/mL.
